Assay results from publication PMC11528320, “S-MGBs bearing amidine tail groups are potent, selective antiplasmodial agents” (RSC Medicinal Chemistry, 2024).
Where two headings read alike, the source gives them in different places.

Experiments:
P. falciparum Dd2 = assay: in vitro asexual P. falciparum imaging assay, Dd2 strain; format: cell-based; conditions: for IC50: Plasmodium falciparum, DD2, 72 h, read-out: Dd2 IC50; for Dd2/3D7: ratio of Dd2 IC50 to 3D7 IC50 (cross-resistance)
Protocol: (§1) The antiplasmodial in vitro assay was performed as previously described.[13] In brief, P. falciparum parasites (3D7 and Dd2 strains) were grown in RPMI-1640 medium supplemented with 25 mM HEPES, 5% AB human male serum, 2.5 mg mL^−1 Albumax II, and 0.37 mM hypoxanthine. Parasites were subjected to two rounds of sorbitol synchronization prior to compound addition. Ring stage parasites were incubated with compounds in 384-well imaging CellCarrier microplates, for 72 h at 37 °C, 90% N2, 5% CO2, 5% O2, parasites stained with 4′,6-diamidino-2-phenylindole (DAPI) and imaged using an Opera QEHS microplate confocal imaging system (PerkinElmer). Images were analysed as previously described,[13] and raw data normalized using the in-plate positive and negative controls to obtain percent inhibition, used to calculate IC50 values, through a four-parameter logistic curve fitting in Prism (GraphPad).

[1] = system: double stranded DNA oligo 5′-CGCATATATGCG-3′; assay: native mass spectrometry (nESI-MS) of binding to dsDNA oligo; conditions: 9 μM DNA, 100 μM S-MGB
Protocol: DNA oligonucleotide sequence 5′-[…]-3′ was purchased in lyophilized form from Alpha DNA, Canada) and used without further purification, purity assessed by NMR. 100 μM stock solutions of DNA were prepared with 150 mM ammonium acetate solution (Fisher Scientific, Loughborough, Leicestershire, UK) and 2 mM potassium chloride solution (Fisher Scientific, Loughborough, Leicestershire, UK). This solution was annealed at 90 degrees for 10 minutes and allowed to cool to room temperature. 10 mM S-MGB stock in 100% DMSO (Sigma-Aldrich, St. Louis, MO, USA) were diluted to 1 mM S-MGB solution with 150 mM ammonium acetate. Final samples were prepared from this solution to yield final concentrations of 9 μM DNA, 100 μM KCl, and 100 μM s-MGB, 1% DMSO. DNA solutions containing no S-MGB included 1% DMSO and were used as controls.
Native mass spectrometry experiments were carried out on a Synapt G2Si instrument (Waters, Manchester, UK) with a nanoelectrospray ionization source (nESI). Mass calibration was performed by a separate infusion of NaI cluster ions. Solutions were ionized from a thin-walled borosilicate glass capillary (i.d. 0.78 mm, o.d. 1.0 mm, Sutter Instrument Co., Novato, CA, USA) pulled in-house to nESI tip with a Flaming/Brown micropipette puller (Sutter Instrument Co., Novato, CA, USA). A negative potential in range of 1.0–1.2 kV was applied to the solution via a thin platinum wire (diameter 0.125 mm, Goodfellow, Huntingdon, UK). The following non-default instrument parameters were used for the DNA: S-MGB-241 complex: capillary voltage 1.4 kV, sample cone voltage 100 V, source offset 110 V, source temperature 40 °C, trap collision energy 3.0 (V), trap gas 3 mL min^−1. For DNA with no MGB present, the following parameters were changed: capillary voltage 1.0 kV, sample cone voltage 80 V, source offset 95 V and trap gas 4.0 mL min^−1. Data were processed using Masslynx V4.2 and OriginPro 2021, and figures were produced using Chemdraw.

HEK293 cells = assay: HEK293 cell viability (resazurin) assay; format: cell-based, Human; conditions: for inhibition at 80 µM: Homo sapiens, HEK293, 72 h; for SI, HEK293/3D7: ratio of HEK293 IC50 (or relative IC50) to P. falciparum 3D7 IC50
Protocol: Cell viability was assessed using a minor modification of the protocol previously described.[14] Human embryonic kidney cells (HEK293) were maintained in Dulbecco's modified Eagle's medium supplemented with 10% foetal bovine serum.

P. falciparum 3D7 = assay: in vitro asexual P. falciparum imaging assay, 3D7 strain; format: cell-based; conditions: Plasmodium falciparum
Protocol: as §1

[2] = system: Salmon genomic DNA (gDNA); assay: UV-vis DNA thermal melting (thermal shift) with gDNA; format: binding; conditions: 10 μM S-MGB, 0.02 mg mL^−1 salmon gDNA, N = 3; for Tm of S-MGB + gDNA: gDNA alone 70
Protocol: Salmon genomic DNA (gDNA; D1626, Sigma-Aldrich) at 1 mg mL^−1 in 1 mM phosphate buffer (pH 7.4) containing 0.27 mM KCl and 13.7 mM NaCl (P4417, Sigma-Aldrich) was annealed at 90 °C for 10 min and left to cool to room temperature. S-MGBs at 10 mM in DMSO were diluted with the same phosphate buffer to yield a single sample with 10 μM S-MGB and 0.02 mg mL^−1 gDNA in 1 mM phosphate buffer containing 0.27 mM KCl and 13.7 mM NaCl. Control samples containing only S-MGB or gDNA were prepared, respectively. Samples were melted at a rate of 0.5 °C min^−1 from 45 °C to 90 °C with spectra recorded at 260 nm on a UV-1900 UV-vis spectrophotometer fitted with a Peltier temperature controller (Shimadzhu) using LabSolutions (Tm Analysis) software. The melting temperatures (Tms) of the S-MGB:DNA complexes were determined by fitting a sigmoidal function using a Boltzmann distribution in OriginPro.

[3] = 3D7, strain not specified, read-out: potency against P. falciparum (approximate, conclusion)

| SMILES | IC50 (P. falciparum Dd2) [nM] | Dd2/3D7 (P. falciparum Dd2) | binding to dsDNA as dimer [DS + 2 M] [1] | binding to dsDNA as monomer [DS + 1 M] [1] | inhibition at 80 µM (HEK293 cells) [%] | HEK293 top concentration tested, used to calculate SI (HEK293 cells; not rIC50 as < 30% inhibition) [nM] | SI, HEK293/3D7 (HEK293 cells) | SI, HEK293/3D7 (HEK293 cells; listed as 359) | IC50 (P. falciparum 3D7; 3D7, 72 h, read-out: 3D7 IC50) [nM] | IC50 (P. falciparum 3D7; [3]) [nM] | ΔTm [2] [°C] | Tm of S-MGB + gDNA [2] [°C] | SI, HEK293/3D7 (HEK293 cells; listed as S-MGB-356) | SI, HEK293/3D7 (HEK293 cells; listed as 368) |
| --- | --- | --- | --- | --- | --- | --- | --- | --- | --- | --- | --- | --- | --- | --- |
| Cn1cc(NC(=O)c2cc(NC(=O)c3ccc(/C=C/c4ccc5ccccc5c4)cc3)cn2C)cc1C(=O)NCCC(=N)N.O=C(O)C(F)(F)F [S-MGB-359] | 318.6 ± 1.1 | 1.1 | bind to DNA as dimers | minor peak corresponding to the monomer complex | 23 | 80 | > 264.8 | >264.8 | 302.1 ± 0.6 | ~100 | 16 | 86 | – | – |
| Cn1cc(NC(=O)c2cc(NC(=O)c3ccc(/C=C/c4ccncc4)cc3)cn2C)cc1C(=O)NCCC(=N)N.O=C(O)C(F)(F)F.O=C(O)C(F)(F)F [S-MGB-365] | 79.6 ± 0.2 | 1.2 | bind to DNA as dimers | no evidence | 95 | – | >612.6 | – | 65.3 ± 0.2 | ~100 | 12 | 82 | > 612.6 | – |
| COc1cccc(/C=C/c2ccc(C(=O)Nc3cc(C(=O)Nc4cc(C(=O)NCCC(=N)N)n(C)c4)n(C)c3)cn2)c1.O=C(O)C(F)(F)F.O=C(O)C(F)(F)F [S-MGB-368] | 201.7 ± 0.3 | 1.5 | bind to DNA as dimers | no evidence | 92 | – | > 335.8 | – | 134 ± 0.3 | ~100 | 3 | 73 | – | >335.8 |
| Cn1cc(NC(=O)c2cc(NC(=O)c3ccc(/C=C/c4cccc(F)c4)cc3)cn2C)cc1C(=O)NCCC(=N)N.O=C(O)C(F)(F)F [S-MGB-391] | 1295.5 ± 0.7 | 1.9 | – | – | 100 | – | >59.6 | – | 671.3 ± 1.4 | – | – | – | – | – |
